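Values below derive from 48-hour exposures of cells grown in 96-well plates, with endpoints linearly interpolated between the two concentrations bracketing the appropriate inhibition level. The concentration for full growth arrest is given as TGI.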

For the first experiment, the system named is HS 578T breast. As to the kind of experiment: NCI tumour cell line growth inhibition, 48 h.
As for `O=C(c1cc(Cl)cc(Cl)c1)N1CCN(C(=O)c2cc(Cl)cc(Cl)c2)C1=S`, the TGI is > 100 µM.
For the molecule `C[C@@H]1C[C@](O)([C@@H](C)Cl)C(=O)O[C@@H]2CCN3CC=C(COC(=O)[C@]1(C)O)[C@H]23`, the TGI is > 100 µM.
On the same count and under the same terms, for `CC(=O)Nc1ccc(-c2nc3cc(Cl)ccc3o2)cc1` the value was > 50 µM; for `O=C(/C=C/C=C/c1ccccc1)c1ccc2c(c1)CCCC2`, 30.4 µM.

Another experiment relates to MOLT-4 leukemia. As to the kind of experiment: NCI tumour cell line growth inhibition, 48 h.
As to `O=C(c1cc(Cl)cc(Cl)c1)N1CCN(C(=O)c2cc(Cl)cc(Cl)c2)C1=S`, the TGI is 19.6 µM.
Same read-out and setting: the figure for `CC(=O)Nc1ccc(-c2nc3cc(Cl)ccc3o2)cc1` is > 50 µM; for `O=C(/C=C/C=C/c1ccccc1)c1ccc2c(c1)CCCC2` it is 87.6 µM.

A further experiment deals with HOP-62 NSCLC. As to the kind of experiment: NCI tumour cell line growth inhibition, 48 h.
On to `O=C(c1cc(Cl)cc(Cl)c1)N1CCN(C(=O)c2cc(Cl)cc(Cl)c2)C1=S`, for which the TGI came out at 33.8 µM.
For `C[C@@H]1C[C@](O)([C@@H](C)Cl)C(=O)O[C@@H]2CCN3CC=C(COC(=O)[C@]1(C)O)[C@H]23`, the TGI was > 100 µM.
The same measure, in the same setting: the figure for `CC(=O)Nc1ccc(-c2nc3cc(Cl)ccc3o2)cc1` is > 50 µM; for `O=C(/C=C/C=C/c1ccccc1)c1ccc2c(c1)CCCC2` it is > 100 µM.

A further experiment concerns PC-3 prostate. Put plainly: NCI tumour cell line growth inhibition, 48 h.
Molecule `O=C(c1cc(Cl)cc(Cl)c1)N1CCN(C(=O)c2cc(Cl)cc(Cl)c2)C1=S` displayed a TGI of 30.3 µM.
Still for that read-out and setting: for `C[C@@H]1C[C@](O)([C@@H](C)Cl)C(=O)O[C@@H]2CCN3CC=C(COC(=O)[C@]1(C)O)[C@H]23` the value was > 100 µM; for `CC(=O)Nc1ccc(-c2nc3cc(Cl)ccc3o2)cc1`, > 50 µM.
On the same count and under the same terms, for `O=C(/C=C/C=C/c1ccccc1)c1ccc2c(c1)CCCC2` the value was > 100 µM.

In a further experiment the test system is TK-10 renal. As to the kind of experiment: NCI tumour cell line growth inhibition, 48 h.
Regarding `O=C(c1cc(Cl)cc(Cl)c1)N1CCN(C(=O)c2cc(Cl)cc(Cl)c2)C1=S`, the TGI worked out at 23.2 µM.
Same read-out and setting: for `C[C@@H]1C[C@](O)([C@@H](C)Cl)C(=O)O[C@@H]2CCN3CC=C(COC(=O)[C@]1(C)O)[C@H]23` the value was > 100 µM; for `CC(=O)Nc1ccc(-c2nc3cc(Cl)ccc3o2)cc1`, > 50 µM; for `O=C(/C=C/C=C/c1ccccc1)c1ccc2c(c1)CCCC2`, > 100 µM.

In another experiment the test system is SF-268 CNS. As to the kind of experiment: NCI tumour cell line growth inhibition, 48 h.
For `O=C(c1cc(Cl)cc(Cl)c1)N1CCN(C(=O)c2cc(Cl)cc(Cl)c2)C1=S`, the TGI came out at 37.6 µM.
Still for that read-out and setting: the figure for `C[C@@H]1C[C@](O)([C@@H](C)Cl)C(=O)O[C@@H]2CCN3CC=C(COC(=O)[C@]1(C)O)[C@H]23` is > 100 µM; for `CC(=O)Nc1ccc(-c2nc3cc(Cl)ccc3o2)cc1` it is > 50 µM; for `O=C(/C=C/C=C/c1ccccc1)c1ccc2c(c1)CCCC2` it is 42.6 µM.

For a further experiment, the system named is SF-539 CNS. As to the kind of experiment: NCI tumour cell line growth inhibition, 48 h.
The molecule `O=C(c1cc(Cl)cc(Cl)c1)N1CCN(C(=O)c2cc(Cl)cc(Cl)c2)C1=S` showed a TGI of 22.7 µM.
Take `C[C@@H]1C[C@](O)([C@@H](C)Cl)C(=O)O[C@@H]2CCN3CC=C(COC(=O)[C@]1(C)O)[C@H]23`: the TGI was > 100 µM.
Still for that read-out and setting: for `CC(=O)Nc1ccc(-c2nc3cc(Cl)ccc3o2)cc1` the value was > 50 µM.
`O=C(/C=C/C=C/c1ccccc1)c1ccc2c(c1)CCCC2`: the TGI was > 100 µM.

For another experiment, the system named is UACC-257 melanoma. Put plainly: NCI tumour cell line growth inhibition, 48 h.
For the molecule `O=C(c1cc(Cl)cc(Cl)c1)N1CCN(C(=O)c2cc(Cl)cc(Cl)c2)C1=S`, the TGI is 28.8 µM.
In the case of `C[C@@H]1C[C@](O)([C@@H](C)Cl)C(=O)O[C@@H]2CCN3CC=C(COC(=O)[C@]1(C)O)[C@H]23`, the TGI was > 100 µM.
On the same count and under the same terms, for `CC(=O)Nc1ccc(-c2nc3cc(Cl)ccc3o2)cc1` the value was > 50 µM; for `O=C(/C=C/C=C/c1ccccc1)c1ccc2c(c1)CCCC2`, > 100 µM.

The test system of a further experiment is NCI-H23 lung. Put plainly: NCI tumour cell line growth inhibition, 48 h.
For the molecule `O=C(c1cc(Cl)cc(Cl)c1)N1CCN(C(=O)c2cc(Cl)cc(Cl)c2)C1=S`, the TGI came out at 34.6 µM.
Same read-out and setting: the figure for `C[C@@H]1C[C@](O)([C@@H](C)Cl)C(=O)O[C@@H]2CCN3CC=C(COC(=O)[C@]1(C)O)[C@H]23` is > 10 µM; for `CC(=O)Nc1ccc(-c2nc3cc(Cl)ccc3o2)cc1` it is > 50 µM; for `O=C(/C=C/C=C/c1ccccc1)c1ccc2c(c1)CCCC2` it is > 100 µM.

The next experiment has as its system NCI-H522 lung. As to the kind of experiment: NCI tumour cell line growth inhibition, 48 h.
The molecule `O=C(c1cc(Cl)cc(Cl)c1)N1CCN(C(=O)c2cc(Cl)cc(Cl)c2)C1=S` came in with a TGI of 25.7 µM.
Same read-out and setting: for `C[C@@H]1C[C@](O)([C@@H](C)Cl)C(=O)O[C@@H]2CCN3CC=C(COC(=O)[C@]1(C)O)[C@H]23` the value was > 100 µM; for `CC(=O)Nc1ccc(-c2nc3cc(Cl)ccc3o2)cc1`, > 50 µM.
The molecule `O=C(/C=C/C=C/c1ccccc1)c1ccc2c(c1)CCCC2` showed a TGI of 37.7 µM.

The subject of another experiment is SNB-75 CNS. As to the kind of experiment: NCI tumour cell line growth inhibition, 48 h.
Take `O=C(c1cc(Cl)cc(Cl)c1)N1CCN(C(=O)c2cc(Cl)cc(Cl)c2)C1=S`: the TGI came out at 27.8 µM.
Take `C[C@@H]1C[C@](O)([C@@H](C)Cl)C(=O)O[C@@H]2CCN3CC=C(COC(=O)[C@]1(C)O)[C@H]23`: the TGI was > 100 µM.
Regarding `CC(=O)Nc1ccc(-c2nc3cc(Cl)ccc3o2)cc1`, the TGI was > 50 µM.

Another experiment relates to MDA-N. As to the kind of experiment: NCI tumour cell line growth inhibition, 48 h.
Molecule `O=C(c1cc(Cl)cc(Cl)c1)N1CCN(C(=O)c2cc(Cl)cc(Cl)c2)C1=S` came in with a TGI of 34.5 µM.
The same measure, in the same setting: for `C[C@@H]1C[C@](O)([C@@H](C)Cl)C(=O)O[C@@H]2CCN3CC=C(COC(=O)[C@]1(C)O)[C@H]23` the value was > 100 µM.
Same read-out and setting: for `CC(=O)Nc1ccc(-c2nc3cc(Cl)ccc3o2)cc1` the value was > 50 µM.
Same read-out and setting: for `O=C(/C=C/C=C/c1ccccc1)c1ccc2c(c1)CCCC2` the value was 62.8 µM.

Another experiment relates to HOP-92 NSCLC. As to the kind of experiment: NCI tumour cell line growth inhibition, 48 h.
Molecule `O=C(c1cc(Cl)cc(Cl)c1)N1CCN(C(=O)c2cc(Cl)cc(Cl)c2)C1=S` gave a TGI of 22.4 µM.
On the same count and under the same terms, the figure for `C[C@@H]1C[C@](O)([C@@H](C)Cl)C(=O)O[C@@H]2CCN3CC=C(COC(=O)[C@]1(C)O)[C@H]23` is > 100 µM.
On the same count and under the same terms, the figure for `CC(=O)Nc1ccc(-c2nc3cc(Cl)ccc3o2)cc1` is > 50 µM; for `O=C(/C=C/C=C/c1ccccc1)c1ccc2c(c1)CCCC2` it is 89.9 µM.

Another experiment deals with ACHN renal. As to the kind of experiment: NCI tumour cell line growth inhibition, 48 h.
For the molecule `O=C(c1cc(Cl)cc(Cl)c1)N1CCN(C(=O)c2cc(Cl)cc(Cl)c2)C1=S`, the TGI is 29.6 µM.
For `C[C@@H]1C[C@](O)([C@@H](C)Cl)C(=O)O[C@@H]2CCN3CC=C(COC(=O)[C@]1(C)O)[C@H]23`, the TGI is > 10 µM.
Still for that read-out and setting: the figure for `CC(=O)Nc1ccc(-c2nc3cc(Cl)ccc3o2)cc1` is > 50 µM; for `O=C(/C=C/C=C/c1ccccc1)c1ccc2c(c1)CCCC2` it is > 100 µM.

In the next experiment the test system is HT29 colon. Put plainly: NCI tumour cell line growth inhibition, 48 h.
The molecule `O=C(c1cc(Cl)cc(Cl)c1)N1CCN(C(=O)c2cc(Cl)cc(Cl)c2)C1=S` came in with a TGI of 51.9 µM.
For the molecule `C[C@@H]1C[C@](O)([C@@H](C)Cl)C(=O)O[C@@H]2CCN3CC=C(COC(=O)[C@]1(C)O)[C@H]23`, the TGI was > 100 µM.
Same read-out and setting: for `CC(=O)Nc1ccc(-c2nc3cc(Cl)ccc3o2)cc1` the value was > 50 µM.

The values above are taken from PubChem BioAssay (NCI).
